This note sets out measurements from ChEMBL document CHEMBL1240439, “Synthesis and docking studies of novel benzopyran-2-ones with anticancer activity” (2010).

Format in all cases: functional
For one experiment, the system named is A549. Briefly: Cytotoxicity against human A549 cells assessed as cell growth at 10 uM after 48 hrs by sulforhodamine B assay. As to conditions: A549, 48 h, read-out: Activity. In general terms: The SRB assay estimates cell density from bound dye.
Another experiment deals with U-251. The experiment is described as follows: Cytotoxicity against human U251 cells assessed as cell growth at 10 uM after 48 hrs by sulforhodamine B assay. As to conditions: U-251, 48 h, read-out: Activity.
The subject of the next experiment is SNB-75. Briefly: Cytotoxicity against human SNB75 cells assessed as cell growth at 10 uM after 48 hrs by sulforhodamine B assay. As to conditions: SNB-75, 48 h, read-out: Activity.
A further experiment relates to MDA-MB-231. The experiment is described as follows: Cytotoxicity against human MDA-MB-231 cells assessed as cell growth at 10 uM after 48 hrs by sulforhodamine B assay. As to conditions: MDA-MB-231, 48 h, read-out: Activity.
Another experiment relates to NCI-H23. Briefly: Cytotoxicity against human NCI-H23 cells assessed as cell growth at 10 uM after 48 hrs by sulforhodamine B assay. The settings on record: NCI-H23, 48 h, read-out: Activity.
The next experiment deals with OVCAR-3. The experiment is described as follows: Cytotoxicity against human OVCAR-3 cells assessed as cell growth at 10 uM after 48 hrs by sulforhodamine B assay. As to conditions: OVCAR-3, 48 h, read-out: Activity.
The next experiment deals with COLO 205. The experiment is described as follows: Cytotoxicity against human COLO205 cells assessed as cell growth at 10 uM after 48 hrs by sulforhodamine B assay. The settings on record: COLO 205, 48 h, read-out: Activity.
The test system of another experiment is KM12. The experiment is described as follows: Cytotoxicity against human KM12 cells assessed as cell growth at 10 uM after 48 hrs by sulforhodamine B assay. As to conditions: KM12, 48 h, read-out: Activity.

Take `Cc1cc(=O)n(C(=O)COc2ccc3c(-c4ccccc4)cc(=O)oc3c2C)[nH]1`: the growth at 10 µM in the experiment on A549 was 0.69%; with U-251, -72.4%; with SNB-75, -35.2%; in the experiment with MDA-MB-231 it was -30%; in the experiment on NCI-H23 it was 1.86%; in the experiment on OVCAR-3, -61.1%. In addition, the growth at 10 µM is 6.21% with COLO 205 and -12% in the experiment on KM12.
